Data reported in the supplement of paper PMC4862054.

Key:
Conditions in all cases: incubation time: 72 h
[1] = test system: BT-474; assay: normalised viability (% of control), CellTiter-Blue; higher = more viable cells (about 100 = DMSO control)
Method in brief: (§1)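 The reported quantity is normalised viability at a single listed concentration of the series. Compound in 5 µl medium was pre-dispensed into 384-well plates and 20 µl of breast cancer cell suspension was added for 72 h. A 2 h, 37 °C CellTiter-Blue step (2.5 µl) preceded fluorescence reading at 560/590 nm, and plates were normalised to vehicle (100) and a positive kill control (0).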

[2] = test system: BT-549; assay: as above
Method in brief: as §1

[3] = test system: CAL-148; assay: as above
Method in brief: as §1

[4] = test system: CAL-85-1; assay: as above
Method in brief: as §1

[5] = test system: DU-4475; assay: as above
Method in brief: as §1

[6] = test system: HCC1143; assay: as above
Method in brief: as §1

[7] = test system: HCC1599; assay: as above
Method in brief: as §1

[8] = test system: HCC1937; assay: as above
Method in brief: as §1

[9] = test system: HDQ-P1; assay: as above
Method in brief: as §1

[10] = test system: Hs578T; assay: as above
Method in brief: as §1

[11] = test system: MDA-MB-231; assay: as above
Method in brief: as §1

[12] = test system: MDA-MB-453; assay: as above
Method in brief: as §1

[13] = test system: MDA-MB-468; assay: as above
Method in brief: as §1

[14] = test system: SK-BR-3; assay: as above
Method in brief: as §1

[15] = test system: BT-474; assay: drug sensitivity score (DSS), CellTox Green (DSS (AUC-based score)); higher = stronger drug effect (viability inhibition or cytotoxicity); extreme values may be limits of the assay
Method in brief: (§2)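 Using 20 µl of cell suspension per well, breast cancer cell lines were seeded into 384-well plates pre-loaded with compound at 5 concentrations in 10-fold steps across a compound-specific 10,000-fold range. Incubation lasted 72 h, after which CellTox Green fluorescence at 485/520 nm and then CellTiter-Glo luminescence, following 10 min at room temperature, were recorded. Each plate was normalised to 0.1 % DMSO and a positive kill control before the drug sensitivity score was derived from the area under the fitted dose-response curve.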

[16] = test system: BT-549; assay: as above
Method in brief: as §2

[17] = test system: CAL-120; assay: as above
Method in brief: as §2

[18] = test system: CAL-85-1; assay: as above
Method in brief: as §2

[19] = test system: DU-4475; assay: as above
Method in brief: as §2

[20] = test system: HCC1599; assay: as above
Method in brief: as §2

[21] = test system: HCC1937; assay: as above
Method in brief: as §2

[22] = test system: Hs578T; assay: as above
Method in brief: as §2

[23] = test system: MCF-10A; assay: as above
Method in brief: as §2

[24] = test system: MDA-MB-231; assay: as above
Method in brief: as §2

[25] = test system: MDA-MB-436; assay: as above
Method in brief: as §2

[26] = test system: MDA-MB-453; assay: as above
Method in brief: as §2

[27] = test system: MDA-MB-468; assay: as above
Method in brief: as §2

[28] = test system: CAL-51; assay: as above
Method in brief: as §2

Structure (SMILES) | drug sensitivity score [15] | drug sensitivity score [16] | drug sensitivity score [17] | drug sensitivity score [18] | drug sensitivity score [19] | drug sensitivity score [20] | drug sensitivity score [21] | drug sensitivity score [22] | drug sensitivity score [23] | drug sensitivity score [24] | drug sensitivity score [25] | drug sensitivity score [26] | drug sensitivity score [27] | normalised viability ([1]; 100 nM) | normalised viability ([2]; 100 nM) | normalised viability ([3]; 10 nM) | normalised viability ([4]; 10 nM) | normalised viability ([5]; 10 nM) | normalised viability ([6]; 100 nM) | normalised viability ([7]; 100 nM) | also measured
S=P(N1CC1)(N1CC1)N1CC1 [Thio-TEPA] | 0 | 0 | 0 | 0 | 0 | 0 | 0 | 3.7 | 0 | 0 | 0 | 0 | 0 | – | – | – | – | – | – | – | normalised viability ([1]; 1000 nM): 114%; normalised viability ([2]; 1000 nM): 105%; normalised viability ([3]; 100 nM): 102%; normalised viability ([4]; 100 nM): 102%; normalised viability ([5]; 100 nM): 102%; normalised viability ([6]; 1000 nM): 88.8%; normalised viability ([7]; 1000 nM): 87.4%; normalised viability ([8]; 1000 nM): 123%; normalised viability ([9]; 100 nM): 120%; normalised viability ([10]; 1000 nM): 90.8%; normalised viability ([11]; 1000 nM): 98.2%; normalised viability ([12]; 100 nM): 97.6%; normalised viability ([13]; 1000 nM): 103%; normalised viability ([14]; 1000 nM): 91.1%
CN(C)c1nc(N(C)C)nc(N(C)C)n1 [Altretamine] | 0 | 0 | 0 | 0 | 0 | 0 | 0 | 0 | 0 | 0 | 0 | 0 | 0 | 117% | 84.4% | 102% | 102% | 104% | 91.7% | 109% | normalised viability ([8]; 100 nM): 91.8%; normalised viability ([9]; 10 nM): 105%; normalised viability ([10]; 100 nM): 96.1%; normalised viability ([11]; 100 nM): 96.8%; normalised viability ([12]; 10 nM): 97.5%; normalised viability ([13]; 100 nM): 104%; normalised viability ([14]; 100 nM): 92.2%; drug sensitivity score [28]: 0
O=C(Nc1ccncc1)C(=O)c1cn(Cc2ccc(Cl)cc2)c2ccccc12 [Indibulin] | 1.31 | 0 | 0.995 | 11.7 | 0 | 0 | 0 | 1.65 | 0 | 8.72 | 0 | 0 | 3.09 | 41.7% | 69.9% | 105% | 106% | 108% | 64% | 146% | normalised viability ([8]; 100 nM): 30.4%; normalised viability ([9]; 10 nM): 95.8%; normalised viability ([10]; 100 nM): 67.7%; normalised viability ([11]; 100 nM): 52%; normalised viability ([12]; 10 nM): 84.8%; normalised viability ([13]; 100 nM): 61.1%; normalised viability ([14]; 100 nM): 18.9%; drug sensitivity score [28]: 12.5
